Results reported in US20070004720A1, “Use of tyrosine kinase inhibitors for the treatment of inflammatory processes” (priority 2003, published 2007).

Test system: cigarette smoke-induced influx of neutrophilic granulocytes into the lung tissue
Assay: Inhibition of the smoke-induced accumulation of granulocytes in the lung tissue (MPO activity)
Type: in vivo, rats (strain: Sprague-Dawley)
Conditions: for ED50: Rattus norvegicus, male Sprague-Dawley rats, 5 days cigarette smoke exposure, intratracheal dose daily 30 min before smoke, lung tissue MPO, linear regression, read-out: ID50 (dosage which led to a 50% inhibition of the MPO activity)
Excerpt: Inhibition of the Smoke-Induced Accumulation of Granulocytes in the Lung Tissue Lung indications: Inhibition of the cigarette smoke-induced influx of neutrophilic granulocytes into the lung tissue by the above-mentioned EGF-receptor kinase inhibitor. Male rats (strain: Sprague-Dawley) weighing from 250-300 g were exposed for 5 days to the smoke from 8 cigarettes per day. The animals in the group treated with compound A, anaesthetised with isofluran, were given an intratracheal dose of 0.03 or 0.1 mg/kg of compound A in a volume of 0.05 ml each day 30 min before the start of the exposure to smoke. On the last day of the test the animals were killed 4 hours after the last exposure to smoke and the lung tissue was removed. A sample of 70-200 mg was taken from each lung and placed in a test tube prepared with 1 ml of 0.5% hexadecyltrimethylammonium bromide. The samples were homogenised for 15 sec using an Ultraturrax. The homogenised samples were centrifuged at 15700 g in an Eppendorf bench centrifuge for 5 min at ambient temperature. […] of the supernatant was removed and mixed with […] of phosphate buffer (50 mmol/l) containing 0.197 mg/ml of O-dianisidine dihydrochloride. After 10 minutes' incubation at ambient temperature the absorption was measured with a spectral photometer at a wavelength of 450 nm. The dosage which led to a 50% inhibition of the MPO activity (=ID50) was determined by linear regression. Exposure to cigarette smoke in rats led to an influx of neutrophilic granulocytes into the lung tissue, measured by the content of myeloperoxidase in the tissues, which is specific for neutrophilic granulocytes.

COc1cc2ncnc(Nc3ccc(F)c(Cl)c3)c2cc1OC1CCN(CCNC(C)=O)CC1 [C, 4-[(3-chloro-4-fluoro-phenyl)amino]-6-[1-(2-acetylamino-ethyl)-piperidin-4-yloxy]-7-methoxy-quinazoline] was tested, and the ED50 was 0.03 mg/kg.

COCC(=O)N1CCC(Oc2cc3c(Nc4ccc(F)c(Cl)c4)ncnc3cc2OC)CC1 [B, 4-[(3-chloro-4-fluoro-phenyl)amino]-6-{1-[(methoxymethyl)carbonyl]-piperidin-4-yloxy}-7-methoxy-quinazoline] showed an ED50 of 0.01 mg/kg.

Work on COc1cc2ncnc(Nc3ccc(F)c(Cl)c3)c2cc1O[C@H]1CC[C@@H](N(C)C(=O)N2CCCCC2)CC1 [H, 4-[(3-chloro-4-fluoro-phenyl)amino]-6-(cis-4-{N-[(piperidin-1-yl)carbonyl]-N-methyl-amino}-cyclohexan-1-yloxy)-7-methoxy-quinazoline] yielded an ED50 of 0.15 mg/kg.

COc1cc2ncnc(Nc3ccc(F)c(Cl)c3)c2cc1O[C@H]1CC[C@@H](NC(C)=O)CC1 [F, 4-[(3-chloro-4-fluoro-phenyl)amino]-6-(cis-4-acetylamino-cyclohexan-1-yloxy)-7-methoxy-quinazoline] gave an ED50 of 0.015 mg/kg.

COc1cc2ncnc(Nc3ccc(F)c(Cl)c3)c2cc1O[C@H]1CC[C@@H](N(C)C(=O)N2CCN(C)CC2)CC1 [I, 4-[(3-chloro-4-fluoro-phenyl)amino]-6-(cis-4-{N-[(4-methyl-piperazin-1-yl)carbonyl]-N-methyl-amino}-cyclohexan-1-yloxy)-7-methoxy-quinazoline] showed an ED50 of 0.15 mg/kg.

With COc1cc2ncnc(Nc3ccc(F)c(Cl)c3)c2cc1OC1CCN(C(=O)N2CCOCC2)CC1 [A, 4-[(3-chloro-4-fluoro-phenyl)amino]-6-{1-[(morpholin-4-yl)carbonyl]-piperidin-4-yloxy}-7-methoxy-quinazoline] the ED50 was 0.1 mg/kg and the “inhibition of the smoke-induced accumulation of granulocytes” value (rats, intratracheal 0.03 or 0.1 mg/kg daily, 5 days smoke exposure, myeloperoxidase content of lung tissue) was “significant (p<0.005) inhibition”.

Work on COc1cc2ncnc(Nc3ccc(F)c(Cl)c3)c2cc1O[C@H]1CC[C@@H](NC(=O)N2CCOCC2)CC1 [K, 4-[(3-chloro-4-fluoro-phenyl)amino]-6-{cis-4-[(morpholin-4-yl)carbonylamino]-cyclohexan-1-yloxy}-7-methoxy-quinazoline] yielded an ED50 of 0.13 mg/kg.

C#Cc1cccc(Nc2ncnc3cc(OC)c(OC4CCN(C(=O)OC(C)(C)C)CC4)cc23)c1 [G, 4-[(3-ethynyl-phenyl)amino]-6-[1-(tert.-butyloxycarbonyl)-piperidin-4-yloxy]-7-methoxy-quinazoline] gave an ED50 of 0.01 mg/kg.

In the case of C#Cc1cccc(Nc2ncnc3cc(OC)c(OC4CCN(C)CC4)cc23)c1 [M, 4-[(3-ethynyl-phenyl)amino]-6-(1-methyl-piperidin-4-yloxy)-7-methoxy-quinazoline], the ED50 is reported as 0.07 mg/kg.

With COc1cc2ncnc(Nc3ccc(F)c(Cl)c3)c2cc1O[C@H]1CC[C@@H](N(C)S(=O)(=O)N2CCOCC2)CC1 [E, 4-[(3-chloro-4-fluoro-phenyl)amino]-6-(cis-4-{N-[(morpholin-4-yl)sulphonyl]-N-methyl-amino}-cyclohexan-1-yloxy)-7-methoxy-quinazoline] the ED50 was 0.4 mg/kg.

COc1cc2ncnc(Nc3ccc(F)c(Cl)c3)c2cc1O[C@H]1CC[C@@H](N(C)C(=O)C2CCOCC2)CC1 [D, 4-[(3-chloro-4-fluoro-phenyl)amino]-6-(cis-4-{N-[(tetrahydropyran-4-yl)carbonyl]-N-methyl-amino}-cyclohexan-1-yloxy)-7-methoxy-quinazoline] was tested, and the ED50 was 0.02 mg/kg.

In the case of COCCOc1cc2ncnc(Nc3ccc(F)c(Cl)c3)c2cc1OC1CCN(C(=O)N2CCOCC2)CC1 [L, 4-[(3-chloro-4-fluoro-phenyl)amino]-6-{1-[(morpholin-4-yl)carbonyl]-piperidin-4-yloxy}-7-(2-methoxy-ethoxy)-quinazoline], the ED50 is reported as 0.4 mg/kg.
